Measurements: ChEMBL document CHEMBL5634173, “Identification of a novel histone H2A mono-ubiquitination-inhibiting cell-active small molecule” (Bioorg Med Chem Lett, 2024)
Active and inactive are the calls of the source. The calls are words filed in the database; no cut-off is given here.

Columns and labels:
U2OS [1] = experiment: Antiproliferative activity against human U2OS cells assessed as reduction in cell viability incubated for 72 hrs; format: functional, cell-based
U2OS [2] = experiment: Inhibition of histone H2A ubiquitination at K119 residue in human U2OS cells assessed as decrease in H2AK119ub1 level incubated for 1 hr by Western blotting analysis; format: cell-based; details: dose 24-96 µM
U2OS [3] = experiment: Antiproliferative activity against human U2OS cells assessed as reduction in cell viability at 30 uM incubated for 72 hrs relative to control; format: functional
U2OS [4] = experiment: Antiproliferative activity against human U2OS cells assessed as reduction in cell viability at 30 uM incubated for 72 hrs; format: functional, cell-based
U2OS [5] = experiment: Antiproliferative activity against human U2OS cells assessed as reduction in cell viability at 50 uM incubated for 72 hrs; format: functional, cell-based

Structure (SMILES) | IC50 (U2OS [1]) | Activity (U2OS [4]) | other results
O=C1C(=Cc2c([N+](=O)[O-])cccc2[N+](=O)[O-])C(=O)c2ccccc21 | 5.86 µM | – | inhibition (U2OS [2]): Dose-Dependent Effect; Activity (U2OS [3]): 100%
O=C1C(=Cc2ccccc2[N+](=O)[O-])C(=O)c2ccccc21 | 39.6 µM | Active | –
COc1cccc(C=C2C(=O)c3ccccc3C2=O)c1 | – | inactive | –
O=C1C(=Cc2ccccc2)C(=O)c2ccccc21 | – | inactive | –
COc1ccc(C=C2C(=O)c3ccccc3C2=O)cc1 | – | inactive | –
O=C1C(=Cc2cccnc2)C(=O)c2ccccc21 | 45.2 µM | – | Activity (U2OS [5]): Active; Activity (U2OS [1]): Dose-Dependent Effect
O=C1C(=Cc2ccc([N+](=O)[O-])cc2[N+](=O)[O-])C(=O)c2ccccc21 | 24 µM | – | –
Cc1cccc(C=C2C(=O)c3ccccc3C2=O)c1 | – | inactive | –
Cc1ccccc1C=C1C(=O)c2ccccc2C1=O | – | inactive | –
Cc1cccc(C)c1C=C1C(=O)c2ccccc2C1=O | – | inactive | –
COc1ccccc1C=C1C(=O)c2ccccc2C1=O | – | inactive | –
N#Cc1cccc(C=C2C(=O)c3ccccc3C2=O)c1 | 32.1 µM | – | –
CCc1c(-c2cccc3[nH]ccc23)[nH]c(C(=O)O)c1-c1ccccc1Cl | – | – | Activity (U2OS [5]): inactive
O=C1C(=Cc2cccc([N+](=O)[O-])c2)C(=O)c2ccccc21 | 24 µM | Active | –
Cc1ccc(C=C2C(=O)c3ccccc3C2=O)cc1 | – | inactive | –
O=C1C(=Cc2cccc(F)c2)C(=O)c2ccccc21 | – | inactive | –
O=C1C(=Cc2ccc([N+](=O)[O-])cc2)C(=O)c2ccccc21 | 33.5 µM | Active | –
